Our source for the Ki values is patent US10160762B2, “6-alkyl dihydropyrazolopyrimidinone compounds as PDE2 inhibitors” (Merck Sharp & Dohme Corp., priority 2015, dated 2018).

The target of the test is T1, human PDE2A1 (Homo sapiens, UniProt O00408).
T1 construct: GST; purchased BPS Bioscience (San Diego, Calif.) 60020; host or cells: insect cells
The test can be described thus: IMAP FP PDE assay, human PDE2A1. In kind it is biochemical. The settings on record: Lab B; read-out: Human PDE2 Ki (nM) Lab B. The gist of the method:
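FP (IMAP) read after 60 min room-temperature reaction of insect-cell GST-human PDE2A1 with 50 nM FAM-cAMP plus 1000 nM cGMP (pH 7.2 Tris, Mg2+, DTT). Compounds titrated 3-fold over ten points. Apparent Ki derived assuming KM of 10,000 nM; enzyme at 20% substrate turnover.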

T1 sequence (O00408 1-920 isoform O00408-2): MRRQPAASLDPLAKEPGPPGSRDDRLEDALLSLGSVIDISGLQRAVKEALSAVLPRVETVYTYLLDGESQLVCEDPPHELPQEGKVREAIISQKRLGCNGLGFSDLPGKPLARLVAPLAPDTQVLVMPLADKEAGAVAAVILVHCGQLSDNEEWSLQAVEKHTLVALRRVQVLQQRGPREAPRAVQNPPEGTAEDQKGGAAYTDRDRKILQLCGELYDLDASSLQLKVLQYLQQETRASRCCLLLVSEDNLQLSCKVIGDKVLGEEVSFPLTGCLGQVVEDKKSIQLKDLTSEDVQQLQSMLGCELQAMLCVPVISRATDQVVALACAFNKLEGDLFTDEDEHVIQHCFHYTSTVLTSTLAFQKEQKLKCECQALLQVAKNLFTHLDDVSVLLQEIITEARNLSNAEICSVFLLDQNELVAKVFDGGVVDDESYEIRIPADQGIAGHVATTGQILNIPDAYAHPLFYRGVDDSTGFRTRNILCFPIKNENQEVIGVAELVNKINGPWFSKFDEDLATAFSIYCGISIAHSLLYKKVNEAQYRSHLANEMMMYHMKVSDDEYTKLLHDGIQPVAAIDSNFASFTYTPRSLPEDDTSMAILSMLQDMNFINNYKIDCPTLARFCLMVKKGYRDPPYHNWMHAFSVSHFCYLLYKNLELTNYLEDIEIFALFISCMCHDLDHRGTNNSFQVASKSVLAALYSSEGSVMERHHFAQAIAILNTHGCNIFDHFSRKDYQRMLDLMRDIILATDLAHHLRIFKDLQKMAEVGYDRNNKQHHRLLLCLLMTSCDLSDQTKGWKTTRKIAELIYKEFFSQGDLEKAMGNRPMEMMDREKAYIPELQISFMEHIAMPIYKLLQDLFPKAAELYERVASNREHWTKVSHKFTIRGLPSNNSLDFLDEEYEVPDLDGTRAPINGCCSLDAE

Take `Cc1nc2c(c(CO)nn2C(c2ccc(C(F)(F)F)cc2)C(C)(C)C)c(=O)[nH]1` (single isomer, unassigned) [Example 83, (S)- or (R)-1-(2,2-Dimethyl-1-(4-(trifluoromethyl)phenyl)-propyl)-3-(hydroxymethyl)-6-methyl-1H-pyrazolo[3,4-d]pyrimidin-4(5H)-one]: the inhibition constant Ki worked out at 7.6 nM.
Turning to `COc1cccc(Cc2nc3c(c(CF)nn3C(C)c3ccc(C(F)(F)F)cc3)c(=O)[nH]2)c1` (single isomer, unassigned) [Example 221, (S)- or (R)-3-(Fluoromethyl)-6-(3-methoxybenzyl)-1-(1-(4-(trifluoromethyl)phenyl)ethyl)-1H-pyrazolo[3,4-d]pyrimidin-4(5H)-one], the inhibitory constant (Ki) is 1.3 nM.
Consider `COCc1nc2c(c(CO)nn2C(C)c2ccc(C(F)(F)F)cc2)c(=O)[nH]1` (single isomer, unassigned) [Example 293], for which the inhibition constant Ki came to 3.5 nM.
For the molecule `Cc1nc2c(c(CCO)nn2C(C)c2ccc(C(F)(F)F)cc2)c(=O)[nH]1` (single isomer, unassigned) [Example 250], the Ki worked out at 1.9 nM.
Turning to `Cc1nc2c(c(CO)nn2C(c2ccc(C(F)(F)F)c(F)c2)C(C)C)c(=O)[nH]1` (single isomer, unassigned) [Example 87, (S)- or (R)-1-(1-(3-Fluoro-4-(trifluoromethyl)phenyl)-2-methylpropyl)-3-(hydroxymethyl)-6-methyl-1H-pyrazolo[3,4-d]pyrimidin-4(5H)-one], the inhibition constant Ki was determined as 3.3 nM.
Turning to `COCc1nn(C(C)c2ccc(C(F)(F)F)cc2)c2nc(C)[nH]c(=O)c12` (single isomer, unassigned) [Example 279], the Ki amounted to 17 nM.
Next, `Cc1nc2c(c(CO)nn2C(c2ccc(OC(F)(F)F)cc2)C(C)C)c(=O)[nH]1` (single isomer, unassigned) [Example 84, (R)- or (S)-3-(Hydroxymethyl)-6-methyl-1-(2-methyl-1-(4-(trifluoromethoxy)phenyl)propyl)-1H-pyrazolo[3,4-d]pyrimidin-4(5H)-one]: 11 nM; `Cc1nc2c(c(CO)nn2C(c2ccc(C(C)(C)C)cc2)C2CC2)c(=O)[nH]1` (single isomer, unassigned) [Example 89, (S)- or (R)-1-((4-tert-Butylphenyl)(cyclopropyl)methyl)-3-(hydroxymethyl)-6-methyl-1H-pyrazolo[3,4-d]pyrimidin-4(5H)-one]: 0.33 nM; `Cc1nc2c(c(CO)nn2C(C)c2ccc(SC(F)(F)F)cc2)c(=O)[nH]1` (single isomer, unassigned) [Example 23, (S)- or (R)-3-(Hydroxymethyl)-6-methyl-1-(1-(4-(trifluoromethylthio)phenyl)ethyl)-1H-pyrazolo[3,4-d]pyrimidin-4(5H)-one]: 1.1 nM.
For the molecule `CC(c1ccc(C(F)(F)F)cc1)n1nc(CO)c2c(=O)[nH]c(C(F)F)nc21` (stereo not shown) [Example 284, 6-(Difluoromethyl)-3-(hydroxymethyl)-1-(1-(4-(trifluoromethyl)phenyl)ethyl)-1H-pyrazolo[3,4-d]pyrimidin-4(5H)-one], the inhibitory constant (Ki) turned out to be 64 nM.
With `Cc1nc2c(c(CO)nn2C(C)c2ccc(OC(F)F)cc2)c(=O)[nH]1` (single isomer, unassigned) [Example 21, (S)- or (R)-1-(1-(4-(Difluoromethoxy)phenyl)ethyl)-3-(hydroxymethyl)-6-methyl-1H-pyrazolo[3,4-d]pyrimidin-4(5H)-one] the figure was 3.5 nM; with `Cc1nc2c(c(CO)nn2C(c2ccc(OC(F)(F)F)c(F)c2)C2CC2)c(=O)[nH]1` (single isomer, unassigned) [Example 93, (S)- or (R)-1-(Cyclopropyl(3-fluoro-4-(trifluoromethoxy)phenyl)methyl)-3-(hydroxymethyl)-6-methyl-1H-pyrazolo[3,4-d]pyrimidin-4(5H)-one], 1.7 nM.
With `Cc1nc2c(c(CF)nn2C(c2ccc(C(F)(F)F)c(F)c2)C2CC2)c(=O)[nH]1` (single isomer, unassigned) [Example 226, (R)- or (S)-1-(Cyclopropyl(3-fluoro-4-(trifluoromethyl)phenyl)methyl)-3-(fluoromethyl)-6-methyl-1,5-dihydro-4H-pyrazolo[3,4-d]pyrimidin-4-one] the figure was 0.32 nM; with `Cc1nc2c(c(CO)nn2C(c2ccc(C(F)(F)F)c(F)c2)C2CC2)c(=O)[nH]1` (single isomer, unassigned) [Example 91, (S)- or (R)-1-(Cyclopropyl(3-fluoro-4-(trifluoromethyl)phenyl)methyl)-3-(hydroxymethyl)-6-methyl-1H-pyrazolo[3,4-d]pyrimidin-4(5H)-one], 1.1 nM.
Next, `Cc1nc2c(c(CC#N)nn2C(C)c2ccc(C(F)(F)F)cc2)c(=O)[nH]1` (single isomer, unassigned) [Example 280]: 77 nM; `Cc1nc2c(c(CO)nn2C(c2ccc(C(F)(F)F)cc2)C2(C)CC2)c(=O)[nH]1` (single isomer, unassigned) [Example 24, (R)- or (S)-3-(Hydroxymethyl)-6-methyl-1-((1-methylcyclopropyl)(4-(trifluoromethyl)phenyl)methyl)-1H-pyrazolo[3,4-d]pyrimidin-4(5H)-one]: 1.9 nM; `Cc1nc2c(c(CC#N)nn2C(C)c2ccc(C(F)(F)F)cc2)c(=O)[nH]1` (single isomer, unassigned) [Example 281]: 2 nM.
For the molecule `Cc1nc2c(c(CO)nn2C(C)c2ccc(C(F)(F)F)cc2F)c(=O)[nH]1` (single isomer, unassigned) [Example 17, (S)- or (R)-1-(1-(2-Fluoro-4-(trifluoromethyl)phenyl)ethyl)-3-(hydroxymethyl)-6-methyl-1H-pyrazolo[3,4-d]pyrimidin-4(5H)-one], the Ki was found to be 2.1 nM.
With `CC(C)c1nc2c(c(CO)nn2C(C)c2ccc(C(F)(F)F)cc2)c(=O)[nH]1` (racemic) [Example 296, 3-(Hydroxymethyl)-6-(1-methylethyl)-1-{1-[4-(trifluoromethyl)phenyl]ethyl}-1,5-dihydro-4H-pyrazolo[3,4-d]pyrimidin-4-one] the figure was 39 nM; with `Cc1nc2c(c(CF)nn2C(c2ccc(OC(F)(F)F)c(F)c2)C2CC2)c(=O)[nH]1` (single isomer, unassigned) [Example 228, (R)- or (S)-1-(Cyclopropyl(3-fluoro-4-(trifluoromethoxy)phenyl)methyl)-3-(fluoromethyl)-6-methyl-1,5-dihydro-4H-pyrazolo[3,4-d]pyrimidin-4-one], 0.42 nM; with `Cc1nc2c(c(CC(F)(F)F)nn2C(c2ccc(C(F)(F)F)cc2)C(C)(C)C)c(=O)[nH]1` (single isomer, unassigned) [Example 57, (S)- or (R)-1-(2,2-Dimethyl-1-(4-(trifluoromethyl)phenyl)propyl)-6-methyl-3-(2,2,2-trifluoroethyl)-1H-pyrazolo[3,4-d]pyrimidin-4(5H)-one], 62 nM.
With `Cc1nc2c(c(CF)nn2C(c2ccc(C(F)(F)F)cc2)C(C)(C)C)c(=O)[nH]1` (single isomer, unassigned) [Example 234, (S)- or (R)-1-(2,2-Dimethyl-1-(4-(trifluoromethyl)phenyl)propyl)-3-(fluoromethyl)-6-methyl-1H-pyrazolo[3,4-d]pyrimidin-4(5H)-one] the figure was 11 nM.

Broadly, the Ki is a measure of affinity in units of concentration, obtained from inhibition or displacement.
